Laboratory results reported in patent US8933035B2, “Transglutaminase-activating peptide and cosmetic or pharmaceutical composition containing same” (ISP Investments Inc., priority 2009, dated 2015).

Assays:
TG2 [1] = assay: immunofluorescence labelling of TG2 in cultured normal human keratinocytes; type: cell-based; details: 0.5 ppm, 24 hours
Method: (§1) The objective of this study was to determine the influence of peptide SEQ ID NO: 5 on the expression of the different transglutaminases expressed in the human skin. To this end, a culture of normal human keratinocytes (NHKs) and a skin biopsy were subjected to specific labellings by immunofluorescence. Cultures of normal human fibroblasts were also labelled by immunofluorescence, specifically for TG2, which is expressed in these types of cell. Cultured NHKs were treated with a 1% solution of a mother solution containing 50 ppm of peptide SEQ ID NO: 5 for 24 hours. For immunolabelling by the anti-TG1 antibody, the cells were washed and fixed with 3.7% paraformaldehyde for 10 minutes. The cells were then incubated in the presence of a specific anti-TG1 antibody (Clinisciences BT-621, mouse monoclonal), then in the presence of a suitable secondary antibody coupled to a fluorescent marker. For the other immunolabellings, the cells were washed and fixed with cold methanol for 1 minute. The cells were then incubated in the presence of a specific antibody; anti-TG2 (ABCAM® ab2972 antibody, rabbit polyclonal), anti-TG3 (ABCAM® ab53236 antibody, mouse monoclonal) or anti-TG5 (ABCAM® ab26992 antibody, rabbit polyclonal). After mounting in a medium ad hoc, the slides were observed under epifluorescence microscope (ECLIPSE® E 80i microscope by Nikon Corporation).

loricrin [2] = assay: immunoblot of loricrin in cultured NHKs; type: cell-based, human; details: 1% of 50 ppm mother solution, 24 hours
Method: (§2) Cultured NHKs were treated with a 1% solution of a mother solution containing 50 ppm of peptide SEQ ID NO: 5 for 24 hours. The cells were then rinsed and detached from the support by scraping in a RIPA buffer in the presence of a cocktail of protease inhibitors (Thermo Scientific, Rockford, USA). The lysed cells were centrifuged at 4° C. at 10,000 rpm for 20 minutes and the supernatants were collected. The samples were then standardised by assaying of the proteins by BCA kit (Pierce, France). The samples were mixed, then subjected to electrophoresis on NUPAGE® 3-8% tris-acetate gel in a NuPAGE NUPAGE® tris-acetate migration buffer, then blotted on a membrane of nitrocellulose by means of a blotting device (Invitrogen, Paisley, UK). The membranes were saturated in 5 TBS milk for 2 hours at ambient temperature, then incubated at 4° C. overnight with a primary antibody directed against TG1 (Clinisciences BT-621, monoclonal mouse) or against involucrin (NOVOCASTRA®NCL-INV antibody, clone SY5, mouse monoclonal) or against loricrin (ABCAM® ab24722 antibody, rabbit polyclonal). After washing by 0.05% TBS-Tween buffer, the membrane was incubated with a suitable secondary antibody coupled to peroxidase. The blots were then developed by means of a chemiluminescent substrate (SuperSignal West Dura Extended Duration Substrate, Pierce, Brebiere, France).

TG2 [3] = assay: immunolabelling of TG2 in ex vivo human skin biopsies; type: cell-based; details: cultivated ex vivo skin biopsies, 0.5 ppm topically, 24 hours
Method: (§3) Biopsies of human skin were placed in culture at the air/liquid interface. A 1% solution of a mother solution containing 50 ppm of peptide SEQ ID NO: 5 was applied topically over 24 hours. For the labellings of TG1 and TG2, the skin biopsies were then enclosed in resin and frozen in nitrogen. Sections of approximately 6 μm were then made by cryostat. Immunolabelling was carried out by means of a specific antibody; anti-TG1 (Clinisciences BT-621, mouse monoclonal) or anti-TG2 (ABCAM® ab2972 antibody, rabbit polyclonal), then by means of a suitable secondary antibody coupled to a fluorescent marker. The skin sections were then examined under epifluorescence microscope (ECLIPSE® E 80i microscope by Nikon Corporation).

loricrin [4] = assay: immunolabelling of epidermal differentiation marker loricrin; type: cell-based, human; details: 0.5 ppm, 24 hours; cultured NHKs and skin biopsies
From the text: (§4) The objective of this study was to determine the influence of peptide SEQ ID NO: 5 on epidermal differentiation. To this end, the expression of the main markers of epidermal differentiation, expressed specifically in the keratinocytes in the suprabasal layers, were studied. The tested markers are transglutaminase 1, pankeratins, filaggrin, involucrin and loricrin. On the other hand, filaggrin, involucrin and loricrin are precursors of the cornified envelope and of transglutaminase substrates.
(§5) Cultured NHKs were treated with a 1% solution of a mother solution containing 50 ppm of peptide SEQ ID NO: 5 for 24 hours. The cells were then washed and fixed with 3.7% paraformaldehyde for 10 minutes. After unmasking of specific sites, the cells were incubated in the presence of a specific antibody directed against TG1 (Clinisciences BT-621, mouse monoclonal), or against loricrin (ABCAM® ab24722 antibody, rabbit polyclonal), or involucrin (NOVOCASTRA® NCL-INV antibody, mouse monoclonal, clone SY5), then incubated in the presence of a suitable secondary antibody coupled to a fluorescent marker. For easier observation, the rings of the cells can be counter-stained by DAPI (4′,6′ di amidine-2-phenyl indole), a blue fluorescent molecule capable of binding strongly to DNA). […]

TG3 [5] = assay: immunolabelling of TG3 in ex vivo human skin biopsies; type: cell-based; details: cultivated ex vivo skin biopsies, 0.5 ppm topically, 24 hours
Method: Biopsies of human skin were placed in culture at the air/liquid interface. A 1% solution of a mother solution containing 50 ppm of peptide SEQ ID NO: 5 was applied topically over 24 hours.
For the labellings of TG3, the skin biopsies were enclosed in paraffin and histological sections 3 μm thick were made. The slides were deparaffined, hydrated, then immunolabelled by an antibody directed against TG3 (ABCAM® ab53236 antibody, mouse monoclonal), then by a suitable secondary antibody coupled to a fluorescent marker. The skin sections were then examined under epifluorescence microscope (ECLIPSE® E 80i microscope by Nikon Corporation).

biopsies of human skin [6] = assay: study of epidermal regeneration, histology of skin biopsies; type: cell-based; details: 1% of 50 ppm mother solution topically, 24 hours
Method: Biopsies of human skin were placed in culture at the air/liquid interface. A 1% solution of a mother solution containing 50 ppm of peptide SEQ ID NO: 5 was applied topically, then the samples were incubated for 24 hours. The skin biopsies were then enclosed in paraffin and histological sections 3 μm thick were made. The sections were deposited on Superfrost Plus slides (Menzel Glaser, Thermo Scientific), then deparaffined in xylene and rehydrated in a series of alcohol-water solutions. The sections were then stained by 50% haematoxylin for 3 minutes, rinsed, then stained with 60% eosin for 3 minutes and rinsed in water. The sections were then dehydrated, mounted in Eukitt and examined by optical microscopy.

pankeratins = assay: immunolabelling of epidermal differentiation marker pankeratins; type: cell-based, human; details: 0.5 ppm, 24 hours; labelled in skin biopsies
From the text: as §4
(§6) Biopsies of human skin were placed in culture at the air/liquid interface. A 1% solution of a mother solution containing 50 ppm of peptide SEQ ID NO: 5 was applied topically over 24 hours. The biopsies were then enclosed in paraffin and histological sections 3 μm thick were made. The slides were deparaffined, hydrated, then immunolabelled by an antibody directed against TG1 (Clinisciences BT-621, mouse monoclonal) or cyto-pankeratins (NOVOCASTRA® NCL-CK10 antibody, mouse monoclonal), or loricrin (ABCAM® ab24722 antibody, rabbit polyclonal), or involucrin (NOVOCASTRA® NCL-INV antibody, clone SY5, mouse monoclonal) or filaggrin (Tebu Santa Cruz sc-58761, mouse monoclonal). For easier observation, the rings of the cells can be counter-stained by DAPI (4′,6′ di amidine-2-phenyl indole, a blue fluorescent molecule capable of binding strongly to DNA). […]

TG2 [7] = assay: immunofluorescence labelling of TG2 in cultured normal human fibroblasts; type: cell-based; details: 0.5 ppm, 24 hours
Method: as §1, with “Corporation). […]” for “Corporation).”

filaggrin = assay: immunolabelling of epidermal differentiation marker filaggrin; type: cell-based, human; details: 0.5 ppm, 24 hours; labelled in skin biopsies
From the text: as §4, §6

TG1 [8] = assay: immunoblot of TG1 in cultured NHKs; type: cell-based, human; details: 1% of 50 ppm mother solution, 24 hours
Method: as §2

TG1 [9] = assay: immunofluorescence labelling of TG1 in cultured normal human keratinocytes; type: cell-based; details: 0.5 ppm, 24 hours
Method: as §1

TG3 [10] = assay: immunofluorescence labelling of TG3 in cultured normal human keratinocytes; type: cell-based; details: 0.5 ppm, 24 hours
Method: as §1

transglutaminases = assay: total enzyme activity of transglutaminases in normal human keratinocytes (fluorescein-labelled cadaverine substrate); type: cell-based; details: NHKs, 0.5 ppm
Method: The objective of this study was to determine the influence of peptide SEQ ID NO: 5 on the total activity of transglutaminases in normal human keratinocytes (NHKs). To this end, the total enzyme activity of transglutaminases was assayed by spectrophotometry by means of an amino acid donor substrate, the amino acids being labelled with fluorescein.
NHKs were placed in black 96-well plates. After four days of culture, the NHKs were treated with a 1% solution of a mother solution containing 50 ppm of peptide SEQ ID NO: 5 for 24 or 48 hours (the active ingredient was added every 24 hours). A positive control was created by treating the cells with EGCG (epigallocatechin gallate, the main polyphenol ingredient in green tea) at a concentration of 20 μg/ml. The substrate used was cadaverine labelled with fluorescein (Invitrogen A10466) diluted to 100 μM in the culture medium. […] After two rinses in ethanol, then three rinses in the HBSS buffer, 100 μl of PBS were added to each well and a reading was taken by spectrophotometer at excitation wavelengths of 485 nm and emission wavelengths of 530 nm. Under these conditions, the transglutaminase activity was proportional to the amount of fluorescence emitted (expressed in fluorescence units), based on the total amount of proteins present in each well, previously assayed by the BCA technique.

involucrin [11] = assay: immunolabelling of epidermal differentiation marker involucrin; type: cell-based, human; details: 0.5 ppm, 24 hours; cultured NHKs and skin biopsies
From the text: as §4, §5

biopsies of human skin [12] = assay: epidermal differentiation, morphology of skin sections ex vivo; type: cell-based; details: 0.5 ppm topically, 24 hours
Method: Biopsies of human skin were placed in culture at the air/liquid interface. A 1% solution of a mother solution containing 50 ppm of peptide SEQ ID NO: 5 was applied topically over 24 hours. The biopsies were then enclosed in paraffin and histological sections 3 μm thick were made. The slides were deparaffined, hydrated, then immunolabelled by an antibody directed against TG1 (Clinisciences BT-621, mouse monoclonal) or cyto-pankeratins (NOVOCASTRA® NCL-CK10 antibody, mouse monoclonal), or loricrin (ABCAM® ab24722 antibody, rabbit polyclonal), or involucrin (NOVOCASTRA® NCL-INV antibody, clone SY5, mouse monoclonal) or filaggrin (Tebu Santa Cruz sc-58761, mouse monoclonal). For easier observation, the rings of the cells can be counter-stained by DAPI (4′,6′ di amidine-2-phenyl indole, a blue fluorescent molecule capable of binding strongly to DNA). A suitable secondary antibody coupled to a fluorescent marker was then used. After mounting in a medium ad hoc, the slides were observed under epifluorescence microscope (ECLIPSE® E 80i microscope by Nikon Corporation).

TG5 = assay: immunofluorescence labelling of TG5 in cultured normal human keratinocytes; type: cell-based; details: 0.5 ppm, 24 hours
Method: as §1

human fibroblasts = assay: Ibidi in vitro healing model of fibroblast regeneration; type: cell-based; details: 0.5 ppm and 1.5 ppm
Method: The Ibidi in vitro healing model was used (Biovalley, Marne la Vallée, France). Human fibroblasts were sown in two separate compartments of an Ibidi insert, which was then placed in a culture dish. On confluence, the insert was removed, thus creating an acellular zone measuring 400 μm wide between the two cellular lawns. The peptide diluted to 1% and 3% from a mother solution containing 50 ppm of peptide SEQ ID NO: 5 was then added to the culture medium, and the treatment was carried out for 48 hours with renewal of the active ingredient every 24 hours. Inspection by phase contrast microscopy (Olympus CK40 microscope, ×5, connected to an Olympus E-510 camera) was carried out at different times (0 to 48 hours) during the migration process.

TG1 [13] = assay: immunolabelling of epidermal differentiation marker TG1; type: cell-based, human; details: 0.5 ppm, 24 hours; cultured NHKs and skin biopsies
From the text: as §4, §5

involucrin [14] = assay: immunoblot of involucrin in cultured NHKs; type: cell-based, human; details: 1% of 50 ppm mother solution, 24 hours
Method: as §2

TG1 [15] = assay: immunolabelling of TG1 in ex vivo human skin biopsies; type: cell-based; details: cultivated ex vivo skin biopsies, 0.5 ppm topically, 24 hours
Method: as §3

increase in total transglutaminase enzyme activity compared to the untreated control (transglutaminases; after 24 hours): 30%
increase in total transglutaminase enzyme activity compared to the untreated control (transglutaminases; after 48 hours): 47.7%
Substance: SEQ ID NO: 5 (RRGQ)
expression of TG2 (immunofluorescence) (TG2 [1]): stimulates the expression
increase in expression of loricrin (quantitative analysis of immunoblots) (loricrin [2]): 16%
expression of TG2 (immunofluorescence) (TG2 [3]): stimulates the expression
expression of loricrin (immunofluorescence) (loricrin [4]): stimulates the expression
expression of TG3 (immunofluorescence) (TG3 [5]): stimulates the expression
cells of the basal layer in histological sections of epidermis (biopsies of human skin [6]): Greater density of the cells of the basal layer
cornified layer in histological sections of epidermis (biopsies of human skin [6]): neo-synthesis of the cornified layer, which appears thicker and better hydrated
expression of pankeratins (immunofluorescence) (pankeratins): stimulates the expression
expression of TG2 (immunofluorescence) (TG2 [7]): stimulates the expression
expression of filaggrin (immunofluorescence) (filaggrin): stimulates the expression
increase in expression of TG1 (quantitative analysis of immunoblots) (TG1 [8]): 20%
expression of TG1 (immunofluorescence) (TG1 [9]): stimulates the expression
expression of TG3 (immunofluorescence) (TG3 [10]): stimulates the expression
expression of involucrin (immunofluorescence) (involucrin [11]): stimulates the expression
epidermal differentiation, cornified layer morphology (biopsies of human skin [12]): thicker cornified layer
expression of TG5 (immunofluorescence) (TG5): stimulates the expression
dose dependence of the effect on fibroblast invasion (human fibroblasts): dose-dependent
invasion of the acellular zone with fibroblasts compared to control (human fibroblasts; 0 to 48 hours): quicker
expression of TG1 as differentiation marker (immunofluorescence) (TG1 [13]): stimulates the expression
increase in expression of involucrin (quantitative analysis of immunoblots) (involucrin [14]): 30%
expression of TG1 (immunofluorescence) (TG1 [15]): stimulates the expression
